What was measured:
Assay in all cases: normalised viability (% of control), CellTiter-Blue; higher = more viable cells (about 100 = DMSO control)
Settings in all cases: incubation time: 72 h
[1] = tested on: BT-549
Outline: (§1)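 Seeded at 20 µl suspension per well onto compound-loaded 384-well plates, breast cancer cell lines were incubated 72 h. CellTiter-Blue fluorescence at 560/590 nm was then read, with each plate normalised to vehicle (100) and a positive kill control (0). Normalised viability is reported at a single listed concentration of the series.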

[2] = tested on: HCC1599
Outline: as §1

[3] = tested on: HCC1143
Outline: as §1

[4] = tested on: Hs578T
Outline: as §1

[5] = tested on: BT-474
Outline: as §1

[6] = tested on: MFM-223
Outline: as §1

[7] = tested on: MDA-MB-468
Outline: as §1

[8] = tested on: CAL-120
Outline: as §1

[9] = tested on: HCC1937
Outline: as §1

[10] = tested on: MDA-MB-453
Outline: as §1

[11] = tested on: CAL-51
Outline: as §1

[12] = tested on: SK-BR-3
Outline: as §1

[13] = tested on: DU-4475
Outline: as §1

[14] = tested on: MDA-MB-231
Outline: as §1

[15] = tested on: MDA-MB-436
Outline: as §1

[16] = tested on: CAL-148
Outline: as §1

[17] = tested on: HDQ-P1
Outline: as §1

[18] = tested on: CAL-85-1
Outline: as §1

O=C(Nc1cccnc1)N1CCC(Cc2cccc(Oc3ccc(C(F)(F)F)cn3)c2)CC1 [PF-3845]
normalised viability [%]
Settings	3 nM	10 nM	30 nM	100 nM	1000 nM	10000 nM
[1]	–	93.3	–	–	86.9	48.6
[2]	–	95.1	–	–	114	76.6
[3]	–	84.3	–	–	88.5	89.5
[4]	–	116	–	–	94.3	79.1
[5]	–	128	–	–	111	40.5
[6]	–	91.8	–	–	95.5	74.1
[7]	–	106	–	–	117	62.8
[8]	–	99.1	–	–	105	120
[9]	–	122	–	–	108	97.2
[10]	112	–	101	101	–	–
[11]	109	–	98.1	103	–	–
[12]	–	111	–	–	106	116
[13]	90.2	–	90.7	87.6	–	–
[14]	–	106	–	–	115	127
[15]	–	98.1	–	–	116	101
[16]	91	–	85.3	97.9	–	–
[17]	129	–	115	113	–	–
[18]	89.6	–	89.5	87.1	–	–

c1ccc2c(CCNc3ccc(Nc4ccncc4)cc3)c[nH]c2c1 [Serdemetan]
normalised viability [%]
Settings	3 nM	10 nM	30 nM	100 nM	1000 nM	10000 nM
[1]	–	95.6	–	–	81.5	26.5
[2]	–	103	–	–	93.8	74.6
[3]	–	87.7	–	–	77.7	43.3
[4]	–	108	–	–	91.5	66.8
[5]	–	106	–	–	106	94.4
[6]	–	83.2	–	–	104	66.4
[7]	–	111	–	–	103	60.9
[8]	–	88	–	–	91.4	48.1
[9]	–	91.2	–	–	94.3	51.4
[10]	119	–	93.8	104	–	–
[11]	118	–	106	108	–	–
[12]	–	96.6	–	–	116	72.2
[13]	93.1	–	88.3	89.6	–	–
[14]	–	88.4	–	–	89.5	58.2
[15]	–	96.8	–	–	51.4	43.6
[16]	88.9	–	86.1	96.3	–	–
[17]	97.5	–	99.7	96.7	–	–
[18]	93.3	–	85.8	84.5	–	–

COc1cc2/c(=N/c3ccc(Br)cc3F)nc[nH]c2cc1OCC1CCN(C)CC1 [Vandetanib]
normalised viability [%]
Settings	3 nM	10 nM	30 nM	100 nM	1000 nM	10000 nM
[1]	–	102	–	–	85.2	22.4
[2]	–	88.7	–	–	107	58.5
[3]	–	122	–	–	99.7	68.5
[4]	–	108	–	–	92.8	50
[5]	–	92.7	–	–	78.8	8.47
[6]	–	100	–	–	61.6	30.6
[7]	–	89.8	–	–	74.3	28
[8]	–	117	–	–	98.2	17.6
[9]	–	29.7	–	–	105	59.7
[10]	89.6	–	94.4	91.4	–	–
[11]	105	–	107	92.3	–	–
[12]	–	100	–	–	96.4	14.3
[13]	108	–	102	106	–	–
[14]	–	86	–	–	82.5	8.26
[15]	–	76.4	–	–	35.7	30.1
[16]	96.2	–	93.2	92.8	–	–
[17]	76.8	–	72.1	59.3	–	–
[18]	105	–	109	101	–	–

COCC[n+]1c2c(n(Cc3cnccn3)c1C)C(=O)c1ccccc1C2=O [YM155]
normalised viability [%]
Settings	3 nM	10 nM	30 nM	100 nM	1000 nM	10000 nM
[1]	–	83	–	–	0.74	-0.61
[2]	–	62.8	–	–	3.16	2.97
[3]	–	83.8	–	–	3.34	2.44
[4]	–	84.8	–	–	19.6	-0.04
[5]	–	84.2	–	–	0.63	2.25
[6]	–	62.8	–	–	12.2	6.53
[7]	–	12.8	–	–	0.21	0.26
[8]	–	9.27	–	–	2.84	3.14
[9]	–	25	–	–	0.8	2.31
[10]	70.7	–	18.7	18.2	–	–
[11]	94.6	–	38.9	11.5	–	–
[12]	–	44.3	–	–	0.33	0.6
[13]	124	–	95.8	57.8	–	–
[14]	–	14.7	–	–	1.23	2.19
[15]	–	34.5	–	–	0.04	0.01
[16]	98.3	–	1.65	1.83	–	–
[17]	80.4	–	16.8	0.96	–	–
[18]	90.3	–	3.33	1.96	–	–

CC(C)C[C@@H](C(=O)N[C@H](C(=O)OC1CCCC1)c1ccccc1)[C@H](O)C(=O)NO [Tosedostat]
normalised viability [%]
Settings	3 nM	10 nM	30 nM	100 nM	1000 nM	10000 nM
[1]	–	85	–	–	63	39.1
[2]	–	96.5	–	–	81.6	106
[3]	–	86.3	–	–	63.8	61.1
[4]	–	96.9	–	–	86	70
[5]	–	107	–	–	101	105
[6]	–	91.6	–	–	64.1	32
[7]	–	91.5	–	–	55.5	54.2
[8]	–	82.4	–	–	65.4	55
[9]	–	83.6	–	–	36.8	44.5
[10]	119	–	101	60.4	–	–
[11]	110	–	111	86.5	–	–
[12]	–	96	–	–	85.7	63.4
[13]	95.7	–	98.6	68	–	–
[14]	–	105	–	–	53.9	47.1
[15]	–	92.4	–	–	73.1	75.3
[16]	100	–	96.3	81.2	–	–
[17]	116	–	100	111	–	–
[18]	104	–	97.8	90.8	–	–

COc1cc(OC2CCN(C)CC2)ccc1Nc1ncc2c(n1)n(C1CCCC1)c(=O)n2C [AZ 3146]
normalised viability [%]
Settings	3 nM	10 nM	30 nM	100 nM	1000 nM	10000 nM
[1]	–	75.4	–	–	89.5	62
[2]	–	107	–	–	121	111
[3]	–	132	–	–	126	95.3
[4]	–	111	–	–	109	80.1
[5]	–	110	–	–	96.2	122
[6]	–	102	–	–	102	84.4
[7]	–	109	–	–	103	53.3
[8]	–	115	–	–	109	76.5
[9]	–	124	–	–	98	92
[10]	96	–	97.7	85.3	–	–
[11]	97.5	–	88.7	87.8	–	–
[12]	–	104	–	–	86.8	74.5
[13]	111	–	90	100	–	–
[14]	–	96.5	–	–	82.3	45.8
[15]	–	102	–	–	94.4	85.6
[16]	111	–	102	115	–	–
[17]	80.8	–	100	118	–	–
[18]	111	–	109	102	–	–

O=C(/C=C/c1cccc(S(=O)(=O)Nc2ccccc2)c1)NO [Belinostat]
normalised viability [%]
Settings	3 nM	10 nM	30 nM	100 nM	1000 nM	10000 nM
[1]	–	108	–	–	67.8	13.1
[2]	–	90	–	–	33.2	15.4
[3]	–	99.4	–	–	54	12.9
[4]	–	114	–	–	74.7	7.02
[5]	–	106	–	–	47.5	2.17
[6]	–	87.8	–	–	37.2	11.1
[7]	–	112	–	–	66.9	16.3
[8]	–	87.7	–	–	20.5	3.33
[9]	–	46.4	–	–	41.4	15.1
[10]	90.7	–	82.5	64.6	–	–
[11]	101	–	103	115	–	–
[12]	–	86.9	–	–	21.6	3.92
[13]	99.9	–	106	98.7	–	–
[14]	–	96.1	–	–	40.7	7.79
[15]	–	116	–	–	38.8	17.4
[16]	90.7	–	97.2	81.7	–	–
[17]	90.4	–	90.8	72.5	–	–
[18]	95.7	–	79.5	86.8	–	–

Oc1ccc2c(c1)CC[C@H](c1ccccc1)[C@@H]2c1ccc(OCCN2CCCC2)cc1 [Lasofoxifene]
normalised viability [%]
Settings	0.3 nM	1 nM	3 nM	10 nM	100 nM	1000 nM
[1]	–	88.1	–	–	83.2	90.3
[2]	–	96	–	–	81.4	103
[3]	–	86	–	–	104	95.6
[4]	–	108	–	–	103	118
[5]	–	122	–	–	114	110
[6]	–	83.5	–	–	84	89.7
[7]	–	95	–	–	95.8	94.4
[8]	–	77.6	–	–	87.8	95.8
[9]	–	88.6	–	–	109	121
[10]	115	–	98.3	98.9	–	–
[11]	100	–	97.9	92.6	–	–
[12]	–	108	–	–	98.4	101
[13]	93.6	–	91.9	88.8	–	–
[14]	–	93.1	–	–	95.2	95.3
[15]	–	95.5	–	–	84.3	101
[16]	95.9	–	104	102	–	–
[17]	97.7	–	114	101	–	–
[18]	83.5	–	82.5	93	–	–

CN(C)c1nc(N(C)C)nc(N(C)C)n1 [Altretamine]
normalised viability [%]
Settings	3 nM	10 nM	30 nM	100 nM	1000 nM	10000 nM
[1]	–	89.3	–	–	78.4	93.4
[2]	–	95.7	–	–	98.2	73.5
[3]	–	74.7	–	–	88.4	91.2
[4]	–	107	–	–	96.9	102
[5]	–	117	–	–	134	138
[6]	–	96.2	–	–	98	89.6
[7]	–	94.5	–	–	104	103
[8]	–	88.6	–	–	98.5	105
[9]	–	100	–	–	96.3	88.6
[10]	119	–	99.5	97.4	–	–
[11]	113	–	108	105	–	–
[12]	–	106	–	–	113	100
[13]	94.6	–	83.6	105	–	–
[14]	–	99.7	–	–	90.9	106
[15]	–	102	–	–	99.5	85.5
[16]	99.5	–	96.7	104	–	–
[17]	107	–	92.7	112	–	–
[18]	105	–	91.5	119	–	–

— the supplement of paper PMC4862054
